Reference: patent US9096593B2, “Compounds and methods for kinase modulation, and indications therefor” (Plexxikon Inc., priority 2009, dated 2015)
Where two headings read alike, the source gives them in different places.

Assays:
[1] = target: Fms kinase (Homo sapiens (Human), UniProt P07333); assay: Fms kinase biochemical activity assay (AlphaScreen, biotin-(E4Y)10 phosphorylation)
Outline: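 Recombinant human Fms phosphorylating 30 nM biotin-(E4Y)10 with 100 μM ATP (1 ng/well enzyme) in Hepes pH 7.5 buffer with Mg2+/Mn2+, 5% DMSO, 20 min at 30 °C. Phosphotyrosine detected by AlphaScreen streptavidin donor/PY20 acceptor beads; IC50 from signal versus compound concentration.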

[2] = target: c-Kit kinase (Homo sapiens (Human), UniProt P10721); assay: c-Kit kinase biochemical activity assay (AlphaScreen, biotin-(E4Y)10 phosphorylation)
Sequence of c-Kit kinase (P10721 26-976): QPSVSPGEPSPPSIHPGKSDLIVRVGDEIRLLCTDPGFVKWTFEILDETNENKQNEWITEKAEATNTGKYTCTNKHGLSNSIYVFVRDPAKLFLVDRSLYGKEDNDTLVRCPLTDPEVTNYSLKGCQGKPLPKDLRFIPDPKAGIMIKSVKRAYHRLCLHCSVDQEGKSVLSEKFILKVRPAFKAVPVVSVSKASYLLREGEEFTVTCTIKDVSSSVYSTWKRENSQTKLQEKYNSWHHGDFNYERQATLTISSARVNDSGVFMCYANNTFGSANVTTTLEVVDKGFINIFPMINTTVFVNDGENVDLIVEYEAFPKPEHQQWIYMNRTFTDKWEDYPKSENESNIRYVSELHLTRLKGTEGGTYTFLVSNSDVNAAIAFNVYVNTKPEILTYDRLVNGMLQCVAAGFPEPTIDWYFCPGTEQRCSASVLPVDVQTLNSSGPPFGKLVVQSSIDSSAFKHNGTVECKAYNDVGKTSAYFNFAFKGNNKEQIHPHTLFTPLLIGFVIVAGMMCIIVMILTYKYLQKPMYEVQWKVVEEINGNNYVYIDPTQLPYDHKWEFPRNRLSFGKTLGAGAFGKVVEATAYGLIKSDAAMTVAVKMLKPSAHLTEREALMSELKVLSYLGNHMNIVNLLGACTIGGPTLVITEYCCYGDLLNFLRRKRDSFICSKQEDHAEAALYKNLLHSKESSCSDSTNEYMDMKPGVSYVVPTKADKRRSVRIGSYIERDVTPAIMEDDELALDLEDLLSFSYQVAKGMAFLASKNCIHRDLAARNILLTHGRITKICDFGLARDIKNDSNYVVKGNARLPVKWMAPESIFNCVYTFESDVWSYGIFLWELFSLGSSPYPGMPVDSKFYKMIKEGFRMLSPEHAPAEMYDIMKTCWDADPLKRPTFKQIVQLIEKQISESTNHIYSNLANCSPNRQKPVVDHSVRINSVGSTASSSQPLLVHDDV
Description: In one assay the biochemical activity IC50 values are determined with respect to inhibition of c-Kit kinase activity, where inhibition of phosphorylation of a peptide substrate is measured as a function of compound concentration. Compounds to be tested are dissolved in DMSO to a concentration of 20 mM. These are diluted 30 μL into 120 μL of DMSO (4 mM) and 1 μL is added to an assay plate. These are then serially diluted […] (50 μL to 100 μL DMSO) for a total of 8 points. Plates are prepared such that each kinase reaction is 20 μL in 1× kinase buffer (25 mM HEPES, pH 7.5, 2 mM MgCl2, 2 mM MnCl2, 0.01% Tween-20, 1 mM DTT, 0.01% BSA), 5% DMSO and 100 μM ATP. Substrate is 30 nM biotin-(E4Y)10 (Millipore). C-kit kinase (obtained from Millipore (#14-559) or is prepared as described in U.S. Patent Application Publication Number 2009/0076046, the disclosure of which is hereby incorporated by reference as it relates to this assay) is at 0.75 ng per sample. After incubation of the kinase reaction for 1 hour at room temperature, 5 μL of donor beads (Streptavidin coated beads (Perkin Elmer Life Science) final concentration 10 μg/mL) in stop buffer (25 mM Hepes pH 7.5, 100 mM EDTA, 0.01% BSA) is added, the sample is mixed and incubated for 20 minutes at room temperature before adding 5 μL of acceptor beads (PY20 coated beads (Perkin Elmer Life Science) final concentration 10 μg/mL) in stop buffer. The samples are incubated for 60 minutes at room temperature and the signal per well is read on Envision reader. […] The signal vs. compound concentration is used to determine the IC50.

[3] = target: CYP1A2 (Homo sapiens (Human), UniProt P05177); assay: CYP enzyme inhibition, fluorescent substrate; conditions: human, 15 min
Sequence of CYP1A2 (P05177 whole entry): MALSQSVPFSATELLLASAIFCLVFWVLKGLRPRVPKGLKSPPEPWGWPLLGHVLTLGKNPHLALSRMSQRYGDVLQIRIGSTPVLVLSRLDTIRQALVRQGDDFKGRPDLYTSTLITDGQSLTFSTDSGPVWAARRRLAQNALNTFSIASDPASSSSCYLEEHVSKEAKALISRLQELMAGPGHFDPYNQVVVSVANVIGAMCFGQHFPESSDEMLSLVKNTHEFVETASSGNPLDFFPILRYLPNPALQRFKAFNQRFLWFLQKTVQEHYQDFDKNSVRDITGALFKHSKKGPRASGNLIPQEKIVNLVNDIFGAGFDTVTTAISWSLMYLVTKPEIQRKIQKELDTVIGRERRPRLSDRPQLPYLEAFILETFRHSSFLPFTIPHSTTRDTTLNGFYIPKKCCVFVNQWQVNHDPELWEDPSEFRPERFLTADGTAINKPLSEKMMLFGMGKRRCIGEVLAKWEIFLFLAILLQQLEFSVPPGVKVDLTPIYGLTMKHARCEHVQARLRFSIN
Description: (§1) CYP (Cytochrome P450) enzymes are the major drug metabolizing enzymes present in the liver. The inhibition of CYP enzyme activity (IC50) for each of CYP1A2, CYP2C19, CYP2C9, CYP2D6, CYP3A4(BFC) and CYP3A4(BQ) is determined for compounds, where inhibition of metabolism of a known substrate leads to a decrease in the fluorescence of the metabolized product. The fluorescence of the product is monitored as a function of compound concentration.
(§2) Compounds are dissolved in DMSO to a concentration of 100 mM. These are diluted 1 μL into 82 μL of acetonitrile. An 11 μL aliquot of this solution is then added to 204 μL of cofactor mix (1.3% NADPH Regeneration system Solution A, 1.04% NADPH Regeneration system Solution B from BD Biosciences, 5% acetonitrile and 0.05% DMSO). These are then serially diluted 1:1 (160 μL to 160 μL co-factor mix) for a total of 10 points. A 10 μL aliquot of this final mixture is dispensed into 384 well assay plates and incubated for 10 minutes at 37° C. Enzyme and substrate mix (10 μL; […] CYP1A2/5 μM CEC; 1.0 μmol CYP2C9/75 μM MFC; […] CYP2C19/25 μM CEC; 1.5 μmol CYP2D6/1.5 μM AMMC; 1.0 μmol CYP3A4/50 μM BFC; or 1.0 μmol CYP3A4/40 μM BQ) is added to these assay plates. Assay plates are incubated at 37° C. (CYP1A2-15 min; CYP2C9-45 min; CYP2C19, 2D6 and 3A4-30 min) and read in a Tecan Safire 2 plate reader (CYP1A2, 2C19 and 3A4 409 ex/460 em; CYP2C9 and 2D6409 ex/530 em). The signal versus compound concentration is used to determine the IC50. The enzymes and substrates for this assay are obtained from BD Biosciences.

[4] = target: CYP2C19 (Homo sapiens (Human), UniProt P33261); assay: CYP enzyme inhibition, fluorescent substrate
Sequence of CYP2C19 (P33261 whole entry): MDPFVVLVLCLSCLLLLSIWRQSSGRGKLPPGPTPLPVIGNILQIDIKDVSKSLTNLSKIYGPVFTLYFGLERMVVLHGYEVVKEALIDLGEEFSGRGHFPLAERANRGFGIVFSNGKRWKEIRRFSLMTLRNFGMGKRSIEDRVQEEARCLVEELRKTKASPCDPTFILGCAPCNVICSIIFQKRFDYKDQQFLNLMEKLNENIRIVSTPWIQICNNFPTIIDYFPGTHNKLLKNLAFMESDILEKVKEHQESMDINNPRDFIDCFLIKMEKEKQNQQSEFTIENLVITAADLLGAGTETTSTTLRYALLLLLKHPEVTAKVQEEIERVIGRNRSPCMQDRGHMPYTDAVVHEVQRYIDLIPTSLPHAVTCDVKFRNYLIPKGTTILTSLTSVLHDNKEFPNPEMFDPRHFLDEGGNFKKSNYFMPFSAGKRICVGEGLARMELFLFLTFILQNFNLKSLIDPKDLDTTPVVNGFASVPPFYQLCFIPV
Description: as §1, §2

[5] = target: CYP2C9 (Homo sapiens (Human), UniProt P11712); assay: CYP enzyme inhibition, fluorescent substrate
Sequence of CYP2C9 (P11712 whole entry): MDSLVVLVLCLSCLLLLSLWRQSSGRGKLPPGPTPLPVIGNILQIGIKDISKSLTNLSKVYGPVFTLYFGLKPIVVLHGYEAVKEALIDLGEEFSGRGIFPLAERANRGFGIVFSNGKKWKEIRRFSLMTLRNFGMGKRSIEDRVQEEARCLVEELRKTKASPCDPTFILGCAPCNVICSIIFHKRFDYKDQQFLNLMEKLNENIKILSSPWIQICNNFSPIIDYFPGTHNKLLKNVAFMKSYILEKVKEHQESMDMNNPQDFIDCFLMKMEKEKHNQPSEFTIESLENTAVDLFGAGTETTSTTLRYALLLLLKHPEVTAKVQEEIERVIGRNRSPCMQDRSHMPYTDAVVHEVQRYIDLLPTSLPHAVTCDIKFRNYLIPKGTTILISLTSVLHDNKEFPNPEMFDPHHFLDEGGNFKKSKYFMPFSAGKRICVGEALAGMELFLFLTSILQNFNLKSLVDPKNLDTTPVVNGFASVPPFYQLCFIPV
Description: as §1, §2

[6] = target: CYP2D6 (Homo sapiens (Human), UniProt P10635); assay: CYP enzyme inhibition, fluorescent substrate; conditions: read-out: Cyp IC50 (μM) 2D6
Sequence of CYP2D6 (P10635 whole entry): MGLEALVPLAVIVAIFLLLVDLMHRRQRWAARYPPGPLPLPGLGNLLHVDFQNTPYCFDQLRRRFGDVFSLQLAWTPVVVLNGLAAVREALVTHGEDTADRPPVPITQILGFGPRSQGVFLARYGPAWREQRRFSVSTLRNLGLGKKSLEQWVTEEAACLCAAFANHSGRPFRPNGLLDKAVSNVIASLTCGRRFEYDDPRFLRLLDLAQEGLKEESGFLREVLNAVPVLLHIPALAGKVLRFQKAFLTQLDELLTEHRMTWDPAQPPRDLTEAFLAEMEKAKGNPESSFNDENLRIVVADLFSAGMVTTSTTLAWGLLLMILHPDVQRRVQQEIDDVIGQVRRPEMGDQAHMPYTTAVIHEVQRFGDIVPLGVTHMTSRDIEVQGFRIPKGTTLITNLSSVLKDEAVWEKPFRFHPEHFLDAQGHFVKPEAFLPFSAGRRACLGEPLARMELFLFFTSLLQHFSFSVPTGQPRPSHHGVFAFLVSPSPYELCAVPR
Description: as §1, §2

[7] = target: CYP3A4(BFC) (Homo sapiens (Human), UniProt P08684); assay: CYP enzyme inhibition, fluorescent substrate
Sequence of CYP3A4(BFC) (P08684 whole entry): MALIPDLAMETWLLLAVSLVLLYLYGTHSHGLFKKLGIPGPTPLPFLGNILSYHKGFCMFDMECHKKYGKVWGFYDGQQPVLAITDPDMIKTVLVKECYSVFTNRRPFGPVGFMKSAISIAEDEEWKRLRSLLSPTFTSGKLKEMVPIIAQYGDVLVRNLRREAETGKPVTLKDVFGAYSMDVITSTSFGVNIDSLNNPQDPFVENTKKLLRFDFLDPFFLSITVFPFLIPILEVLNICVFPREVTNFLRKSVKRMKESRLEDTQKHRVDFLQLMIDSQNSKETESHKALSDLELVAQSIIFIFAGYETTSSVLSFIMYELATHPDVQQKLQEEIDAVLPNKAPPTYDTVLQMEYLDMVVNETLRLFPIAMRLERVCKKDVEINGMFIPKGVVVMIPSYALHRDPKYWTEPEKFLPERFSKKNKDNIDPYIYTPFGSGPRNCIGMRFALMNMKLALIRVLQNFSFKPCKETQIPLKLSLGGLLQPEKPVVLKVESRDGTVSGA
Description: as §1, §2

[8] = target: CYP3A4(BQ) (Homo sapiens (Human), UniProt P08684); assay: CYP enzyme inhibition, fluorescent substrate
Sequence of CYP3A4(BQ) (P08684 whole entry): as above
Description: as §1, §2

[9] = read-out: Biochemical activity (IC50 μM) Fms
[10] = read-out: Cyp IC50 (μM) 3A4(BFC), BFC substrate
[11] = read-out: Cyp IC50 (μM) 3A4(BQ), BQ substrate
[12] = human, CYP2C9 enzyme (BD Biosciences), 45 min
[13] = 100 μM ATP, read-out: Biochemical (IC50 μM) Fms

Sequence of Fms kinase (P07333 20-972): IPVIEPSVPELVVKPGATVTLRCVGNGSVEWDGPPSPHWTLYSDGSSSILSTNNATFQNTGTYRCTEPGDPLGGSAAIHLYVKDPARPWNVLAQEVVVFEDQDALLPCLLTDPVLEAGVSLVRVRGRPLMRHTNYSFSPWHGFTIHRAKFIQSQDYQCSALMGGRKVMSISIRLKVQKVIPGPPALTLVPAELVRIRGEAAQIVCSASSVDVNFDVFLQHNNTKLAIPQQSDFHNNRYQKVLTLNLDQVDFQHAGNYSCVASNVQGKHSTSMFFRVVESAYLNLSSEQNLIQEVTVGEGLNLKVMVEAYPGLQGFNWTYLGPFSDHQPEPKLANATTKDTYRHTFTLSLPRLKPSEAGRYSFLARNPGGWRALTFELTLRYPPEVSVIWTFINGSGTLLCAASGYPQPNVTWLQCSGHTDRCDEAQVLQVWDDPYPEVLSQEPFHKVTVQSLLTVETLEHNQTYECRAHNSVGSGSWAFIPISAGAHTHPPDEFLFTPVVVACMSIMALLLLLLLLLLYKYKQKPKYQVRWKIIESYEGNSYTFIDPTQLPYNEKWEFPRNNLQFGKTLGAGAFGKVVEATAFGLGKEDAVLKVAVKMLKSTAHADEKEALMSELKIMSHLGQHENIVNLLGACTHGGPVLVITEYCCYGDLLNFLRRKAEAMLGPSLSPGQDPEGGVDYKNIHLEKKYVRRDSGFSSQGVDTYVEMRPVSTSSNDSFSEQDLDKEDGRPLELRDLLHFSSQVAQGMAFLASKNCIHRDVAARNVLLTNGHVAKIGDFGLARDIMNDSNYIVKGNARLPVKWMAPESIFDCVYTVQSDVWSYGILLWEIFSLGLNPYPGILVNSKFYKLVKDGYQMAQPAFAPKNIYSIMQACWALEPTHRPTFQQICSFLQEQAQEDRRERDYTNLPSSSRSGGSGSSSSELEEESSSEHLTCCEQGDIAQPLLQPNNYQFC

Compound | Biochemical activity selectivity (Kit IC50/Fms IC50) [1] | IC50 [1, 9] [µM] | IC50 [2] [µM] | IC50 [3] [µM] | IC50 ([4]; read-out: Cyp IC50 (μM) 2C19) [µM] | IC50 [5] [µM] | IC50 [6] [µM] | IC50 [7, 10] [µM] | IC50 [7] [µM] | IC50 [8, 11] [µM] | IC50 [4] [µM] | IC50 [5, 12] [µM] | IC50 ([5]; read-out: Cyp IC50 (μM) 2C9) [µM] | IC50 [8] [µM] | IC50 [1, 13] [µM]
Fc1cc(Cc2c[nH]c3ncc(Cl)cc23)cnc1NCc1ccc(C(F)(F)F)nc1 [Compound P-2172, [5-(5-Chloro-1H-pyrrolo[2,3-b]pyridin-3-ylmethyl)-3-fluoro-pyridin-2-yl]-(6-trifluoromethyl-pyridin-3-ylmethyl)-amine] | <20 | < 0.1 | < 0.1 | > 10 | < 5 | 5 to 10 | > 10 | > 10 | – | – | – | – | – | – | –
COc1ncccc1CNc1ncc(Cc2c[nH]c3ncc(C)cc23)cn1 [Compound P-2139, (2-Methoxy-pyridin-3-ylmethyl)-[5-(5-methyl-1H-pyrrolo[2,3-b]pyridin-3-ylmethyl)-pyrimidin-2-yl]-amine] | >20 | < 0.1 | > 0.1 | > 10 | > 10 | 5 to 10 | > 10 | – | 5 to 10 | > 10 | – | – | – | – | –
Cc1ccc(CNc2ccc(Cc3c[nH]c4ncc(C)cc34)c(F)n2)nc1 [Compound P-2131, [6-Fluoro-5-(5-methyl-1H-pyrrolo[2,3-b]pyridin-3-ylmethyl)-pyridin-2-yl]-(5-methyl-pyridin-2-ylmethyl)-amine] | >20 | < 0.1 | > 0.1 | > 10 | – | – | – | < 5 | – | > 10 | 5 to 10 | < 5 | – | – | –
COc1ncc(F)cc1CNc1ccc(Cc2c[nH]c3ncc(NC(C)=O)cc23)c(F)n1 [Compound P-1669, N-(3-{2-fluoro-6-[(5-fluoro-2-methoxy-pyridin-3-ylmethyl)-amino]-pyridin-3-ylmethyl}-1H-pyrrolo[2,3-b]pyridin-5-yl)-acetamide] | – | – | – | > 10 | > 10 | – | > 10 | – | 5 to 10 | – | – | – | < 5 | – | –
COc1cnc2[nH]cc(Cc3ccc(NCc4cncc(F)c4)nc3F)c2c1 [Compound P-2028, [6-Fluoro-5-(5-methoxy-1H-pyrrolo[2,3-b]pyridin-3-ylmethyl)-pyridin-2-yl]-(5-fluoro-pyridin-3-ylmethyl)-amine] | >20 | < 0.1 | > 0.1 | > 10 | > 10 | – | – | < 5 | – | < 5 | – | – | < 5 | – | –
COc1cc(CNc2ccc(Cc3c[nH]c4ncc(C)cc34)c(F)n2)c(F)cn1 [Compound P-2071, (5-Fluoro-2-methoxy-pyridin-4-ylmethyl)-[6-fluoro-5-(5-methyl-1H-pyrrolo[2,3-b]pyridin-3-ylmethyl)-pyridin-2-yl]-amine] | >20 | < 0.1 | > 0.1 | > 10 | > 10 | 5 to 10 | – | – | 5 to 10 | – | – | – | – | 5 to 10 | –
COc1ccc(CNc2ccc(Cc3c[nH]c4ncc(C)cc34)c(F)n2)c(OC)n1 [Compound P-2097, (2,6-Dimethoxy-pyridin-3-ylmethyl)-[6-fluoro-5-(5-methyl-1H-pyrrolo[2,3-b]pyridin-3-ylmethyl)-pyridin-2-yl]-amine] | >20 | < 0.1 | > 0.1 | > 10 | – | – | > 10 | – | 5 to 10 | – | – | < 5 | – | 5 to 10 | –
CCS(=O)(=O)Nc1ccccc1CNc1ccc(Cc2c[nH]c3ncc(C)cc23)c(F)n1 [Compound P-2198, Ethanesulfonic acid (2-{[6-fluoro-5-(5-methyl-1H-pyrrolo[2,3-b]pyridin-3-ylmethyl)-pyridin-2-ylamino]-methyl}-phenyl)-amide] | <20 | < 0.1 | > 0.1 | > 10 | < 5 | 5 to 10 | > 10 | < 5 | – | – | – | – | – | – | –
COc1ncccc1CNc1ccc(Cc2c[nH]c3ncccc23)c(F)n1 [Compound P-2045, [6-Fluoro-5-(1H-pyrrolo[2,3-b]pyridin-3-ylmethyl)-pyridin-2-yl]-(2-methoxy-pyridin-3-ylmethyl)-amine] | >20 | < 0.1 | > 0.1 | > 10 | – | – | – | – | 5 to 10 | > 10 | 5 to 10 | – | > 10 | – | –
Cn1cc(F)cc(CNc2ncc(Cc3c[nH]c4ncc(Cl)cc34)cn2)c1=O [Compound P-2157, 3-{[5-(5-Chloro-1H-pyrrolo[2,3-b]pyridin-3-ylmethyl)-pyrimidin-2-ylamino]-methyl}-5-fluoro-1-methyl-1H-pyridin-2-one] | <20 | > 0.1 | > 0.1 | > 10 | – | – | > 10 | – | 5 to 10 | > 10 | – | > 10 | – | – | –
COc1ncccc1CNc1ccc(Cc2c[nH]c3ncc(C)cc23)c(F)n1 [Compound P-2052, [6-Fluoro-5-(5-methyl-1H-pyrrolo[2,3-b]pyridin-3-ylmethyl)-pyridin-2-yl]-(2-methoxy-pyridin-3-ylmethyl)-amine] | >20 | < 0.1 | > 0.1 | > 10 | – | 5 to 10 | > 10 | – | 5 to 10 | – | – | – | – | 5 to 10 | –
COc1ccc(CNc2ncc(Cc3c[nH]c4ncc(Cl)cc34)cn2)cn1 [Compound P-2038, [5-(5-Chloro-1H-pyrrolo[2,3-b]pyridin-3-ylmethyl)-pyrimidin-2-yl]-(6-methoxy-pyridin-3-ylmethyl)-amine] | <20 | < 0.1 | > 0.1 | > 10 | > 10 | 5 to 10 | – | > 10 | – | > 10 | – | – | – | – | < 0.1
Cc1cnc2[nH]cc(Cc3ccc(NCc4ccc(C(F)(F)F)nc4)nc3F)c2c1 [Compound P-2031, [6-Fluoro-5-(5-methyl-1H-pyrrolo[2,3-b]pyridin-3-ylmethyl)-pyridin-2-yl]-(6-trifluoromethyl-pyridin-3-ylmethyl)-amine] | <20 | < 0.1 | > 0.1 | > 10 | – | – | > 10 | – | 5 to 10 | – | – | < 5 | – | 5 to 10 | < 0.1
